Measurements as given in patent publication US20230219890A1, “BICYCLIC COMPOUNDS AND USE THEREOF” (Betta Pharmaceuticals Co.,Ltd, priority 2020, published 2023).

How the values were obtained:
VEGFA (786-O cells) = assay: VEGFA ELISA Assay (IC50); format: cell-based; conditions: VEGFA in culture supernatant by ELISA
Protocol: 786-O cells in exponential growth phase were seeded in 96-well plate, the cell concentration was 65,000 cells per milliliter of culture medium, 180 ul per well. Compounds were serial diluted to the indicated concentration, and 20 ul compound solutions of different concentrations were added to the corresponding cell wells. The final compound concentrations were as follows (nM): 1.5, 4.6, 13.7, 41.2, 123.5, 370.4, 1111.1, 3333.3, 10000. After 24 hours of incubation, the cell culture supernatant was taken, and the VEGFA concentration was determined using an ELISA kit (purchased from abcam). Finally, the reaction was terminated, and the light absorbance value of each well was measured using a microplate reader at a wavelength of […], and IC50 was calculated by GraphPad Prism. Cell Titer-Glo reagent was used to measure cell viability.

[1] = test system: HIF2α reporter cells (786-O-HIF2α-Luc cells); assay: Luciferase Assay (HIF2α reporter cells); format: cell-based; conditions: 18-20 h, Steady-Glo luminescence
Protocol: Luciferase LUC gene was transfected into 786-O cells (purchased from ATCC) using Lipofectamine 3000 Transfection Reagent (purchased from Invitrogen) to construct HIF2α reporter cells (786-O-HIF2α-Luc cells). Experiments were performed when 786-O-HIF2α-Luc cells were in logarithmic growth phase, culture medium (RPMI MEDIUM 1640, purchased from Invitrogen) was abandoned, the cells were rinsed with PBS three times; trypsin (TrypLE, purchased from invitrogen) was added to digest cells, the digestion was terminated by washing the cells with culture medium, 10% fetal bovine serum, 1% penicillin and streptomycin. The cells were collected by centrifugation, rinsed twice with PBS to remove the phenol red in the medium, and then resuspended the cells to an appropriate concentration, and detected the cell density and viability, and made sure the cell viability is above 90% before it can be used for experiments.
The gradient concentration compound was transferred into 384-well plate, 25 nl/well using Echo 550 (non-contact sonic pipetting system, purchased from Labcyte); the cells were seeded in 384-well plate, 4500 cells/well, with 25 μl of culture medium, to make the final concentrations as follows: 10000, 3333, 1111, 370, 123, 41.1, 13.7, 4.6, 1.5, 0.5 nM. Cells were incubated at 37° C., 5% CO2 for 18-20 h; Steady-Glo™ Luciferase Assay System (purchased from Promega) was added to 384 well-plate, 25 μl/well; the luminescence value was detected with Envision. The % inhibition rate was calculated according to the RLU (Record Luminescence) signal value of each well, and then the IC50 of the corresponding compound was calculated by Graphpad 8.0.

[2] = Homo sapiens, 786-0, 24 h, 24 hours incubation, numeric values
[3] = Homo sapiens, 786-0, 24 h, 24 hours incubation, class symbols
[4] = 24 hours incubation, numeric values

IC50 (VEGFA (786-O cells); [2]) | IC50 ([1]; numeric values) | IC50 ([1]; class symbols) | Molecule | also measured
44.2 nM | 67 nM |  | N#Cc1cc(-c2cc(C(F)(F)F)c3n2CCC(F)(F)C3O)ccc1F (stereo not drawn) [Example 69, 5-(7,7-difluoro-8-hydroxyl-1-(trifluoromethyl)-5,6,7,8-tetrahydroindolizin-3-yl)-2-fluorobenzonitrile] | 
45.4 nM | 84.2 nM |  | N#Cc1cc(-c2cc(C(F)(F)F)c3n2CCC(F)(F)[C@H]3O)ccc1F [Example 70, (S)-5-(7,7-difluoro-8-hydroxyl-1-(trifluoromethyl)-5,6,7,8-tetrahydroindolizin-3-yl)-2-fluorobenzonitrile] | 
 |  | ≤ 500 nM | N#Cc1cc(-c2cc(C(F)(F)F)c3n2CCC(F)C3O)ccc1F (stereo not drawn) [Example 75, 2-fluoro-5-(7-fluoro-8-hydroxy-1-(trifluoromethyl)-5,6,7,8-tetrahydroindolizin-3-yl)benzonitrile] | IC50 (VEGFA (786-O cells); [3]): ≤ 500 nM
 | 37.6 nM |  | N#Cc1cc(-n2cc(C(F)(F)F)c3c2CCC(F)(F)[C@H]3O)ccc1F [Example 95] | IC50 (VEGFA (786-O cells); [4]): 14.5 nM
 |  | ≤ 500 nM | OC1c2c(C(F)(F)F)c(F)n(-c3cc(F)cc(Cl)c3)c2CCC1(F)F (stereo not drawn) [Example 106, 1-(3-chloro-5-fluorophenyl)-2,5,5-trifluoro-3-(trifluoromethyl)-4,5,6,7-tetrahydro-1H-indol-4-ol] | IC50 (VEGFA (786-O cells); [3]): ≤ 500 nM
27.7 nM | 53.2 nM |  | O[C@H]1c2c(C(F)(F)F)cn(-c3cc(F)cc(Cl)c3)c2CCC1(F)F [Example 116, (S)-1-(3-chloro-5-fluorophenyl)-5,5-difluoro-3-(trifluoromethyl)-4,5,6,7-tetrahydro-1H-indol-4-ol] | 
38.9 nM | 75.7 nM |  | OC1c2c(C(F)(F)F)cn(-c3ccc(F)c(Cl)c3)c2CCC1(F)F (stereo not drawn) [Example 120, 1-(3-chloro-4-fluorophenyl)-5,5-difluoro-3-(trifluoromethyl)-4,5,6,7-tetrahydro-1H-indol-4-ol] | 
31 nM | 98.5 nM |  | N#Cc1cc(-n2cc(C(F)(F)F)c3c2CCC(F)(F)C3O)ccc1F (stereo not drawn) [Example 121] | 
34 nM |  | ≤ 500 nM | N#Cc1ccc(-n2cc(C(F)(F)F)c3c2CCC(F)(F)C3O)cc1C#N (stereo not drawn) [Example 125, 4-(5,5-difluoro-4-hydroxy-3-(trifluoromethyl)-4,5,6,7-tetrahydro-1H-indol-1-yl)phthalonitrile] | 
 |  | ≤ 500 nM | N#Cc1cc(-n2cc(C(F)(F)F)c3c2CCC(F)[C@H]3O)ccc1F (stereo partly drawn) [Example 131, 2-fluoro-5-((4S)-5-fluoro-4-hydroxy-3-(trifluoromethyl)-4,5,6,7-tetrahydro-1H-indol-1-yl)benzonitrile] | IC50 (VEGFA (786-O cells); [3]): ≤ 500 nM
 |  | ≤ 500 nM | OC1c2c(C(F)(F)F)cn(-c3cc(F)c(F)c(F)c3)c2CCC1(F)F (stereo not drawn) [Example 148] | IC50 (VEGFA (786-O cells); [3]): ≤ 500 nM
15.6 nM | 70.5 nM |  | OC1c2c(C(F)(F)F)cn(-c3ccc(F)c(C(F)(F)F)c3)c2CCC1(F)F (stereo not drawn) [Example 156, 5,5-difluoro-1-(4-fluoro-3-(trifluoromethyl)phenyl)-3-(trifluoromethy)-4,5,6,7-tetrahydro-1H-indol-4-ol] | 
 | 69.9 nM |  | N#Cc1ccc(-n2cc(C(F)(F)F)c3c2CCC(F)(F)[C@H]3O)cc1C#N [Example 167, (S)-4-(5,5-difluoro-4-hydroxy-3-(trifluoromethyl)-4,5,6,7-tetrahydro-1H-indol-1-yl)phthalonitrile] | IC50 (VEGFA (786-O cells); [3]): ≤ 500 nM
8.4 nM | 30.5 nM |  | OC1c2c(C(F)(F)F)cn(-c3ccc(F)c(C(F)F)c3)c2CCC1(F)F (stereo not drawn) [Example 168, 1-(3-(difluoromethyl)-4-fluorophenyl)-5,5-difluoro-3-(trifluoromethyl)-4,5,6,7-tetrahydro-1H-indol-4-ol] | 
17.8 nM | 15.9 nM |  | O[C@H]1c2c(C(F)(F)F)cn(-c3ccc(F)c(C(F)F)c3)c2CCC1(F)F [Example 173, (S)-1-(3-(difluoromethyl)-4-fluorophenyl)-5,5-difluoro-3-(trifluoromethyl)-4,5,6,7-tetrahydro-1H-indol-4-ol] | 
5.6 nM | 33.5 nM |  | [2H][C@]1(O)c2c(C(F)(F)F)cn(-c3ccc(F)c(C#N)c3)c2CCC1(F)F [Example 200, (S)-5-(5,5-difluoro-4-hydroxyl-3-(trifluoromethyl)-4,5,6,7-tetrahydro-1H-indol-1-yl-4-d)-2-fluorobenzonitrile] | 
 |  | ≤ 500 nM | (4S,5S)-1-(3-(difluoromethyl)-4-fluorophenyl)-5-fluoro-3-(trifluoromethyl)-4,5,6,7-tetrahydro-1H-indol-4-ol and (4R,5R)-1-(3-(difluoromethyl)-4-fluorophenyl)-5-fluoro-3-(trifluoromethyl)-4,5,6,7-tetrahydro-1H-indol-4-ol [Example 103] | IC50 (VEGFA (786-O cells); [4]): 44.1 nM

Molecule | IC50 (VEGFA (786-O cells); [2]) | IC50 ([1]; numeric values) | IC50 ([1]; class symbols) | also measured
N#Cc1ccc(-n2cc(C(F)(F)F)c3c2CCC(F)(F)C3O)cc1Cl (stereo not drawn) [Example 124, 2-chloro-4-(5,5-difluoro-4-hydroxy-3-(trifluoromethyl)-4,5,6,7-tetrahydro-1H-indol-1-yl)benzonitrile] |  |  | ≤ 500 nM | IC50 (VEGFA (786-O cells); Homo sapiens, 786-0, 24 hours incubation, numeric values): 8.5 nM
